Results: publication PMC6201685 (Biochemistry, 2016)

Tests used:
Rv2671 [1] = target: T1, Rv2671 (Mycobacterium tuberculosis, UniProt P71968); format: biochemical
Rv2671 [2] = target: T1, Rv2671; test: X-ray cocrystal structure; format: biochemical
[3] = test system: Nc1nc2c(c(=O)[nH]1)N=C(CNc1ccc(C(=O)O)cc1)CN2; test: purified protein
[4] = test system: Nc1nc2c(c(=O)[nH]1)N=C(CNc1ccc(C(=O)N[C@@H](CCC(=O)O)C(=O)O)cc1)CN2; test: purified protein

For `NC(=O)C1=CN([C@@H]2O[C@H](COP(=O)(O)OP(=O)(O)OC[C@H]3O[C@@H](n4cnc5c(N)ncnc54)[C@H](OP(=O)(O)O)[C@@H]3O)[C@@H](O)[C@H]2O)C=CC1` [NADPH], the “cosubstrate in DHF reduction assay with purified enzyme (340 nm, HPLC)” value (Rv2671 [1]) was “Tetrahydrofolate, the product of the reaction, was observed by HPLC spectrometry after the addition of DHF and NADPH to Rv2671”.

Molecule `COc1cc(NCc2ccc3nc(N)nc(N)c3c2C)cc(OC)c1OC` [TMQ, trimetrexate] has an IC50 (Rv2671 [2]) of 280 ± 20 nM.

Molecule “Rv2671 (Mycobacterium tuberculosis H37Rv)” has a Km [3] of 180.2 ± 25.5 µM and a Km [4] of 136 ± 32 µM.
